Test results from patent US7915291B2, “Hepatitis C virus inhibitors” (Bristol-Myers Squibb Company, priority 2002, dated 2011).
pEC50, pIC50: −log10 of the molar value. Like-named read-outs stand apart in the source and are kept apart here.

Experiments:
[1] = system: HCV replicon in Huh7 cells; experiment: HCV replicon cell-based assay; parameters: species or system HCV strain 1B; conditions: Hepatitis C virus, Huh-7; HCV replicon, Huh7 cells; read-out: EC50 range
[2] = target: HCV NS3/4A protease complex, BMS strain (UniProt P27958, C1454S/C1711G, species not given/STRAIN_BMS); experiment: Recombinant HCV NS3/4A protease complex FRET peptide assay (BMS strain); type: biochemical, HCV genotype 1a
Summary of the method: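 Recombinant BMS-strain NS3/4A (His-tagged NS4A with three-lysine tail, E. coli) at 2-3 nM preincubated 1 min with compound, then 2 μM ester-linked NS4A/NS4B-based FRET peptide added. Fluorescence followed in real time ~15 min at 25° C. Percent inhibition from slope of linear fluorescence change versus no-compound control.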

[3] = NS3/4A BMS strain; read-out: IC50 range
[4] = read-out: IC50 range; NS3/4A BMS strain

SMILES	pEC50 [1]	pIC50 [2, 3]	pIC50 [2, 4]
C=CC1C[C@]1(NC(=O)[C@@H]1C[C@@H](Oc2nc(-c3csc(N(CC)CC)n3)cc3cc(OC)ccc23)CN1C(=O)[C@@H](NC(=O)OC(C)(C)C)C(C)(C)C)C(=O)NS(=O)(=O)C1CC1 (stereo partly shown) [Compound 321]	6.00 to 7.00	> 7.00	–
C=CC1C[C@]1(NC(=O)[C@@H]1C[C@@H](Oc2nc(-c3csc(N(C)C)n3)cc3cc(OC)ccc23)CN1C(=O)[C@@H](NC(=O)OC(C)(C)C)C(C)(C)C)C(=O)NS(=O)(=O)C1CC1 (stereo partly shown) [Compound 322]	> 7.00	> 7.00	–
C=CC1C[C@]1(NC(=O)[C@@H]1C[C@@H](Oc2noc3cc(OC)ccc23)CN1C(=O)[C@@H](NC(=O)OC(C)(C)C)C(C)(C)C)C(=O)NS(=O)(=O)C1CC1 (stereo partly shown) [Compound 323]	6.00 to 7.00	> 7.00	–
C=CC1C[C@]1(NC(=O)[C@@H]1C[C@@H](Oc2nsc3ccccc23)CN1C(=O)[C@@H](NC(=O)OC(C)(C)C)C(C)(C)C)C(=O)NS(=O)(=O)C1CC1 (stereo partly shown) [Compound 324]	6.00 to 7.00	> 7.00	–
C=CC1C[C@]1(NC(=O)[C@@H]1C[C@@H](Oc2nc(-c3ccncc3)cc3cc(OC)ccc23)CN1C(=O)[C@@H](NC(=O)OC(C)(C)C)C(C)(C)C)C(=O)NS(=O)(=O)C1CC1 (stereo partly shown) [Compound 325]	> 7.00	> 7.00	–
C=CC1C[C@]1(NC(=O)[C@@H]1C[C@@H](Oc2nc(-c3ccc(N(C)C)cc3)cc3cc(OC)ccc23)CN1C(=O)[C@@H](NC(=O)OC(C)(C)C)C(C)(C)C)C(=O)NS(=O)(=O)C1CC1 (stereo partly shown) [Compound 326]	> 7.00	> 7.00	–
C=CC1C[C@]1(NC(=O)[C@@H]1C[C@@H](Oc2nc(-c3ccc(N(CC)CC)cc3)cc3cc(OC)ccc23)CN1C(=O)[C@@H](NC(=O)OC(C)(C)C)C(C)(C)C)C(=O)NS(=O)(=O)C1CC1 (stereo partly shown) [Compound 327]	> 7.00	> 7.00	–
C=CC1C[C@]1(NC(=O)[C@@H]1C[C@@H](Oc2nc(-c3cccnc3)cc3cc(OC)ccc23)CN1C(=O)[C@@H](NC(=O)OC(C)(C)C)C(C)(C)C)C(=O)NS(=O)(=O)C1CC1 (stereo partly shown) [Compound 328]	> 7.00	> 7.00	–
C=CC1C[C@]1(NC(=O)[C@@H]1C[C@@H](Oc2nc(-c3ccccc3N(C)C)cc3cc(OC)ccc23)CN1C(=O)[C@@H](NC(=O)OC(C)(C)C)C(C)(C)C)C(=O)NS(=O)(=O)C1CC1 (stereo partly shown) [Compound 329]	> 7.00	> 7.00	–
C=CC1C[C@]1(NC(=O)[C@@H]1C[C@@H](Oc2nc(-c3cccc(N(C)C)c3)cc3cc(OC)ccc23)CN1C(=O)[C@@H](NC(=O)OC(C)(C)C)C(C)(C)C)C(=O)NS(=O)(=O)C1CC1 (stereo partly shown) [Compound 330]	> 7.00	> 7.00	–
C=CC1C[C@]1(NC(=O)[C@@H]1C[C@@H](Oc2noc3ccccc23)CN1C(=O)[C@@H](NC(=O)OC(C)(C)C)C(C)(C)C)C(=O)NS(=O)(=O)C1CC1 (stereo partly shown) [Compound 334]	6.00 to 7.00	6.00 to 7.00	–
C=CC1C[C@]1(NC(=O)[C@@H]1C[C@@H](Oc2nccc(-c3ccccc3)n2)CN1C(=O)[C@@H](NC(=O)OC)C(C)(C)C)C(=O)NS(=O)(=O)C1CC1 (stereo partly shown) [Compound 335]	5.00 to 6.00	> 7.00	–
C=CC1C[C@]1(NC(=O)[C@@H]1C[C@@H](Oc2nccc(-c3ccccn3)n2)CN1C(=O)[C@@H](NC(=O)OC)C(C)(C)C)C(=O)NS(=O)(=O)C1CC1 (stereo partly shown) [Compound 336]	5.00 to 6.00	6.00 to 7.00	–
C=CC1C[C@]1(NC(=O)[C@@H]1C[C@@H](Oc2nccc(-c3cccs3)n2)CN1C(=O)[C@@H](NC(=O)OC)C(C)(C)C)C(=O)NS(=O)(=O)C1CC1 (stereo partly shown) [Compound 337]	5.00 to 6.00	6.00 to 7.00	–
C=CC1C[C@]1(NC(=O)[C@@H]1C[C@@H](Oc2nccc(-c3cccs3)n2)CN1C(=O)[C@@H](NC(=O)CC1CC1)C(C)(C)C)C(=O)NS(=O)(=O)C1CC1 (stereo partly shown) [Compound 338]	5.00 to 6.00	> 7.00	–
C=CC1C[C@]1(NC(=O)[C@@H]1C[C@@H](Oc2nccc(-c3ccco3)n2)CN1C(=O)[C@@H](NC(=O)CC1CC1)C(C)(C)C)C(=O)NS(=O)(=O)C1CC1 (stereo partly shown) [Compound 339]	5.00 to 6.00	> 7.00	–
C=CC1C[C@]1(NC(=O)[C@@H]1C[C@@H](Oc2nccc(-c3nccs3)n2)CN1C(=O)[C@@H](NC(=O)CC1CC1)C(C)(C)C)C(=O)NS(=O)(=O)C1CC1 (stereo partly shown) [Compound 340]	4.00 to 5.00	> 7.00	–
C=CC1C[C@]1(NC(=O)[C@@H]1C[C@@H](COc2cccc(Br)c2)CN1C(=O)[C@@H](NC(=O)OC)C(C)(C)C)C(=O)NS(=O)(=O)C1CC1 (stereo partly shown) [Compound 345]	4.00 to 5.00	5.00 to 6.00	–
C=CC1C[C@]1(NC(=O)[C@@H]1C[C@@H](COc2cncc(-c3ccsc3)c2)CN1C(=O)[C@@H](NC(=O)OC)C(C)(C)C)C(=O)NS(=O)(=O)C1CC1 (stereo partly shown) [Compound 347]	4.00 to 5.00	–	6.00 to 7.00

SMILES	pEC50 [1]	pIC50 [2, 3]	pIC50 [2, 4]
C=CC1C[C@]1(NC(=O)[C@@H]1C[C@@H](COc2ccnc(-c3cccs3)c2)CN1C(=O)[C@@H](NC(=O)OC)C(C)(C)C)C(=O)NS(=O)(=O)C1CC1 (stereo partly shown) [Compound 350]	4.00 to 5.00	–	6.00 to 7.00
C=CC1C[C@]1(NC(=O)[C@@H]1C[C@@H](COc2cccc(-c3ccoc3)n2)CN1C(=O)[C@@H](NC(=O)OC)C(C)(C)C)C(=O)NS(=O)(=O)C1CC1 (stereo partly shown) [Compound 355]	4.00 to 5.00	6.00 to 7.00	–
C=CC1C[C@]1(NC(=O)[C@@H]1C[C@@H](COc2cccc(-c3cccs3)n2)CN1C(=O)[C@@H](NC(=O)OC)C(C)(C)C)C(=O)NS(=O)(=O)C1CC1 (stereo partly shown) [Compound 356]	5.00 to 6.00	6.00 to 7.00	–
C=CC1C[C@]1(NC(=O)[C@@H]1C[C@@H](Nc2nccc3ccccc23)CN1C(=O)[C@@H](NC(=O)OC(C)(C)C)C(C)(C)C)C(=O)NS(=O)(=O)C1CC1 (stereo partly shown) [Compound 357]	6.00 to 7.00	–	> 7.00
C=C[C@@H]1C[C@]1(NC(=O)[C@@H]1C[C@@H](Oc2cc(-c3csc(NC(C)C)n3)nc3cc(OC)ccc23)CN1C(=O)[C@@H](NC(=O)OC(C)(C)C)C(C)(C)C)C(=O)NS(=O)(=O)C1CC1 [Compound 370]	5.00 to 6.00	–	6.00 to 7.00
C=C[C@@H]1C[C@]1(NC(=O)[C@@H]1C[C@@H](Oc2ccnc3cc(Cl)ccc23)CN1C(=O)[C@@H](NC(=O)OC(C)(C)C)C(C)(C)C)C(=O)NS(=O)(=O)C1CC1 [Compound 371]	> 7.00	> 7.00	–
C=C[C@@H]1C[C@]1(NC(=O)[C@@H]1C[C@@H](Oc2ccnc3cc(Cl)ccc23)CN1C(=O)[C@@H](NC(=O)OC1CCCC1)C(C)(C)C)C(=O)NS(=O)(=O)C1CC1 [Compound 372]	> 7.00	> 7.00	–
C=C[C@@H]1C[C@]1(NC(=O)[C@@H]1C[C@@H](Oc2cc(C3CC3)nc3cc(OC)ccc23)CN1C(=O)[C@@H](NC(=O)OC(C)(C)C)C(C)(C)C)C(=O)NS(=O)(=O)C1CC1 [Compound 373]	> 7.00	> 7.00	–
C=C[C@@H]1C[C@]1(NC(=O)[C@@H]1C[C@@H](Oc2ccnc3cc(OC)ccc23)CN1C(=O)[C@@H](NC(=O)OC(C)(C)C)C(C)(C)C)C(=O)NS(=O)(=O)C1CCC1 [Compound 374, BOCNH-P3(L-t -BuGly)-P2[(4R)-(7-methoxyquinoline-4-oxo)-S-proline]-P1(1R,2S Vinyl Acca)-CONHSO2-Cyclobutane]	6.00 to 7.00	> 7.00	–
C=C[C@@H]1C[C@]1(NC(=O)[C@@H]1C[C@@H](Oc2ccnc3cc(OC)ccc23)CN1C(=O)[C@@H](NC(=O)OC(C)(C)C)C(C)(C)C)C(=O)NS(=O)(=O)C1CC1 [Compound 375]	> 7.00	> 7.00	–
C=CCCCCC[C@H](NC(=O)OC(C)(C)C)C(=O)N1C[C@H](Oc2ccnc3cc(OC)ccc23)C[C@H]1C(=O)N[C@]1(C(=O)NS(=O)(=O)C2CC2)C[C@H]1C=C [Compound 377]	6.00 to 7.00	> 7.00	–
C=C[C@@H]1C[C@]1(NC(=O)[C@@H]1C[C@@H](Oc2ccnc3cc(OC)ccc23)CN1C(=O)[C@@H](NC(=O)OC(C)(C)C)C(C)C)C(=O)NS(=O)(=O)C1CC1 [Compound 378]	> 7.00	> 7.00	–
C=C[C@@H]1C[C@]1(NC(=O)[C@@H]1C[C@@H](Oc2cc(-c3ccccn3)nc3cc(OC)ccc23)CN1C(=O)[C@@H](NC(=O)OC(C)(C)C)C(C)(C)C)C(=O)NS(=O)(=O)C1CC1 [Compound 379]	> 7.00	> 7.00	–
C=C[C@@H]1C[C@]1(NC(=O)[C@@H]1C[C@@H](Oc2nccc3cc(OC)ccc23)CN1C(=O)[C@@H](NC(=O)OC1CCCC1)C(C)(C)C)C(=O)NS(=O)(=O)C1CCC1 [Compound 380]	6.00 to 7.00	> 7.00	–
C=C[C@@H]1C[C@]1(NC(=O)[C@@H]1C[C@@H](Oc2nccc3cc(OC)ccc23)CN1C(=O)[C@@H](NC(=O)OCC(C)(C)C)C(C)(C)C)C(=O)NS(=O)(=O)C1CCC1 [Compound 381]	6.00 to 7.00	–	> 7.00
C=C[C@@H]1C[C@]1(NC(=O)[C@@H]1C[C@@H](Oc2nccc3cc(OC)ccc23)CN1C(=O)[C@@H](NC(=O)OC(C)(C)CC)C(C)(C)C)C(=O)NS(=O)(=O)C1CCC1 [Compound 382]	6.00 to 7.00	> 7.00	–
C=C[C@@H]1C[C@]1(NC(=O)[C@@H]1C[C@@H](Oc2nccc3cc(OC)ccc23)CN1C(=O)[C@@H](NC(=O)NC(C)(C)C)C(C)(C)C)C(=O)NS(=O)(=O)C1CCC1 [Compound 383]	> 7.00	> 7.00	–
C=C[C@@H]1C[C@]1(NC(=O)[C@@H]1C[C@@H](Oc2nccc3cc(OC)ccc23)CN1C(=O)[C@@H](NC(=O)OC1(C)CCCC1)C(C)(C)C)C(=O)NS(=O)(=O)C1CCC1 [Compound 384]	> 7.00	> 7.00	–
C=C[C@@H]1C[C@]1(NC(=O)[C@@H]1C[C@@H](Oc2nc(N3CCOCC3)cc3cc(OC)ccc23)CN1C(=O)[C@@H](NC(=O)OC(C)(C)C)C(C)(C)C)C(=O)NS(=O)(=O)C1CC1 [Compound 385]	> 7.00	> 7.00	–
